{"source": "patent US20060088502A1", "about": "“Drug for reducing side effects in ribavirin interferon combination therapy” (priority 2003, published 2006)", "system": "patients with chronic hepatitis C who had developed anemia due to ribavirin/IFN α combination therapy", "assay_type": "in vivo, human", "details": "average of 6 cases; p < 0.05 vs. before EPA administration (10.8 g/dL)", "description": "After the onset of anemia, each patient received 600 mg of EPA-E (trade name: Epadel, manufactured by Mochida Pharmaceutical Co., Ltd.) three times a day by oral administration every after meal for 2 months. Depending on the disease cases, the time of starting the administration of EPA-E varied within the range from 1 to 4 months after the start of administration of ribavirin/IFN α. In the ribavirin/IFN α combination therapy, ribavirin (trade name: Rebetol, manufactured by Schering-Plough Corporation) was orally administered to each patient of over 60 kg in body weight at a dose of 400 mg every after morning meal and every after evening meal as well, and to each patient of 60 kg or less at a dose of 200 mg every after morning meal and 400 mg every after evening meal. Simultaneously, 6 million IU a day of IFN α-2b (trade name: Intron A, manufactured by Schering-Plough Corporation) was intramuscularly administered everyday for two weeks, followed by intermittent administration of three times a week for 22 weeks.", "note": "Marks after values point to notes of the source that are not given here.", "data": [{"compound": "CC/C=C\\C/C=C\\C/C=C\\C/C=C\\C/C=C\\CCCC(=O)OCC", "note": "[EPA, eicosapentaenoic acid ethyl ester]", "values": [{"measurement": "Hemoglobin level, average, after EPA administration for one month", "value": "11.4* g/dL"}, {"measurement": "Hemoglobin level, average, after EPA administration for two months", "value": "11.5* g/dL"}]}]}
